Measured values as given in US20200253914A1, “NOVEL FORMULATIONS” (priority 2015, published 2020).
Where two headings read alike, the source gives them in different places.

What was measured:
[1] = BPO chemical stability in wash formulations and shelf life prediction; type: physicochemical; conditions: increasing sorbitol concentrations in wash formulations
Method: BPO stability in the formulations of the present invention were assessed over time at 25° C./60% RH and 30° C./65% RH using environmentally controlled chambers. Specifically formulations containing 2.5% BPO or 10% BPO in glass vials were placed on stability, and monitored for BPO degradation.
Chemical stability of the BPO in surfactant based wash products is a challenge due to increased solubility of the BPO in these systems.

HaCaT cells = assay: HaCaT cell viability assay for skin irritancy potential; type: cell-based
Method: Irritancy potential of the individual surfactants as well as formulation chassis (placebo formulations) were evaluated using an in house in vitro test. The method utilizes HaCaT cell viability as a marker for irritation.
Briefly, HaCaT cells were seeded in 96-well plates (Nunc 96 well plate, Cat #165305) at density of 2×10^4 cells per well, and grown overnight before treatments. Test articles were diluted in water to make 10% stock solutions, which were serially diluted in DMEM to twice to the final treatment concentrations. Cells were treated in triplicates by adding 100 μl of serially diluted test articles to each well containing 100 μl fresh medium. After incubation at 37° C., 5% CO2 for 10 minutes in the presence of diluted placebos, cells were then washed with 200 μl of DPBS with Ca^++ and Mg^++ (Life Technologies #14040133) for 3 times. CellTiter-Blue reagent (Promega, G8081, 10× stock solution) was diluted to 1× working solution in cell culture medium and added to cells (100 μl/well). Cells were incubated at 37° C., 5% CO2 for 60 minutes and the cell viability was measured using fluorescent activity (Ex. 560 nm, Em. 590 nm). All treated samples were normalized to the untreated control. Cell viabilities were then used to assess skin irritation potential.
Cell viability studies were conducted to assess the skin irritation of the formulations using Neutrogena Ultra Gentle Daily Cleanser and PanOxyl 10 (Placebo) as the comparators. The results are shown in FIG. 2 for the 2.5% BPO formulations and FIG. 3 for the 10% BPO formulations. Sodium Lauryl […] (SLS) was used as the positive control. […] All 6 formulations outperformed Neutrogena Ultra Gentle with formulation #3(2.5%) being more than 3 fold milder than Neutrogena Ultra Gentle cleanser. The 2.5% prototypes were slightly milder than the 10% formulations. This is expected due to higher concentration of the surfactants in the 10% formulations.

[2] = in water and propylene glycol, after 90 days of storage; cited from earlier work
[3] = HaCaT cell viability, 10 minutes treatment, left = mildest, SLS positive control

Row | Molecule | rank order of screened surfactants for mildness, based on EC 50 values (HaCaT cells; [3]) | also measured
1 | OC[C@@H](O)[C@@H](O)[C@H](O)[C@@H](O)CO [sorbitol, D-Sorbitol] |  | effect of humectant on BPO stability (benzoic acid generated) [1]: improve BPO stability
2 | Sodium Laurylglucoside Hydroxypropylsufonate [Suganate 160 NC] |  | rank order of screened surfactants for mildness, based on EC 50 values (HaCaT cells): > Plantaren 2000 N UP
3 | Sodium Hydroxyethylglycinate cocoglucoside crosspolymer and sodium bis-hydroxytethylglycinate lauryl glucoside crosspolymer [PolySuga Glycinate C] |  | rank order of screened surfactants for mildness, based on EC 50 values (HaCaT cells): > PolySuga Phos 1200P
4 | sodium C14-16 Olefin sulfonate [Colonial AOS] | > Cola Lipid C | 
5 | Cocamidopropyl PG-Dimonium Chloride Phosphate [Cola Lipid C] | > SLS | 
6 | Sodium C14-C17 sec-alkyl sulfonate [Hostapur SAS 60] | SLS | 
7 | CCCCCCCCCCO[C@@H]1O[C@H](CO)[C@@H](O)[C@H](O)[C@H]1O [Plantaren 2000 N UP, decyl glucoside] | > Colonial AOS | 
8 | O=C(OOC(=O)c1ccccc1)c1ccccc1 [BPO, Benzoyl peroxide] |  | degradation of benzoyl peroxide in suspension (dispersed form) [2]: not degraded
